# Test results taken from patent publication US11498853B2, “Water with switchable ionic strength” (QUEEN'S UNIVERSITY AT KINGSTON, priority 2010, dated 2022).
# Where “and” joins values, the source holds several entries; their conditions need not be identical. Equal values may be shown once. Read-outs that look alike come from different tables or passages of the source.
# Experiments:
# [1] = Miscibility of diamines and triamines with water in presence and absence of CO2; assay type: physicochemical; conditions: 5:1 w/w water and liquid additive; for Miscibility with water, After addition of CO2: CO2 90 min; for Miscibility with water, Before addition of CO2: room temperature
# Experimental: A 5:1 w/w solution of water and the liquid additive (total volume 5 m) were mixed together in a glass vial at room temperature. Whether the mixture formed one or two liquid phases was visually observed. Then CO2 was bubbled through the mixture via a single narrow gauge steel needle at a flow rate of ˜5 ml min^−1 for 90 min. Whether the mixture formed one or two phases was visually observed.
# [2] = Solvent switching of diamidine/water system, 1H NMR; assay type: physicochemical; conditions: 0.80 molal, 30 minutes CO2
# Experimental: The diamidine was investigated as additive for switchable ionic strength solutions. […] The volumes of each phase were recorded.
# [3] = Separation of THF from aqueous phase and retention of additive on switching with CO2, by 1H NMR; assay type: physicochemical
# Experimental: (§1) The volumes of each phase were recorded.
# The graduated cylinders were capped with rubber septa. […] A second narrow gauge steel tube was provided to vent the gaseous phase.
# as §1
# [4] = Zeta potential of suspended clay fines in switchable water; assay type: physicochemical
# Experimental: (§2) Clay fines were weighed and placed into individual vials (0.025 g, Ward's Natural Science Establishment). Kaolinite and montmorilonite were used as received, but as illite day was ground into a powder using a motar and pestle. Solutions containing additives were made with deionized water (18.2 MΩ/cm, Millipore) and 10 ml was added to the clay fines. A suspension was created using a vortex mixer and subsequently dispensed into a folded capillary cell. The zeta potential was measured using a Malvern Zetasizer instrument. The errors reported on the zeta potential values were the standard deviations of the zeta potential peaks measured.
# (§3) Unless specified, all carbon dioxide treatments were conducted with the aqueous solutions prior to addition to day fines. For applicable measurements, ultra pure carbon dioxide (Supercritical CO2 Chromatographic Grade, Paxair) was bubbled through the solutions using a syringe.
# [5] = Reversible protonation of amine additives in H2O monitored by conductivity; assay type: physicochemical
# Experimental: 1:1 w/w H2O and THEED was used because a 1:1 v/v solution was too viscous to pour accurately. A trigger gas chosen from CO2, air or nitrogen was bubbled at identical flow rates through the solution via a narrow gauge steel tube and the conductivity of the solution was measured periodically using a Jenway 470 Conductivity Meter (Bibby Scientific, NJ, US) having a cell constant of 1.02 cm^−1.
# The deprotonation reactions of the ionic solutions of additives in water were monitored in a similar manner, and the conductivity plot is shown in FIG. 8.
# 1:1 v/v solutions of the various additives and distilled, deionised water were prepared in six dram glass vials and transferred to a fritted glass apparatus which acted as a reaction vessel. The fritted glass apparatus consisted of a long narrow glass tube leading to a fine glass frit having a diameter of approximately 4 cm. The other end of the glass frit was connected to a cylindrical glass tube which held the solution of the additive during contacting with the trigger gas. This apparatus allowed a multiple source of trigger gas bubbles to contact the solution, compared to the single point source of Example 5.
# A trigger gas chosen from CO2, air or nitrogen was bubbled through the solution via the glass frit at a flow rate of 110 ml min^−1 as measured by a J&W Scientific ADM 2000 Intelligent Flowmeter (CA, USA). For each conductivity measurement, the solution was transferred back to a six dram vial, cooled to 298 K and measured in triplicate. Conductivity measurements were performed using a Jenway 470 Conductivity Meter (Bibby Scientific, NJ, US) having a cell constant of 1.02 cm^−1.
# [6] = Zeta potential of suspended clay fines in switchable water; assay type: physicochemical; conditions: Kaolinite
# Experimental: as §2, §3
# Another experiment was performed in which CO2 was bubbled through a 1 mM aqueous solution of TMDAB that already contained clay fines (a method referred to as “switching in situ”).
# [7] = 0.80 molal
# Experimental: The methylated spermine was investigated as additive for switchable ionic strength solutions. To measure the extent of THF being forced out of an aqueous phase by an increase in ionic strength, and the amounts of amine, which remained in the aqueous phase, 1:1 w/w solutions of THF and water were prepared in graduated cylinders. The appropriate mass of amine additive to result in a 0.80 molal solution was added and the cylinders were capped with rubber septa. […] The volumes of each phase were recorded. Aliquots of the non-aqueous and aqueous layers were taken and dissolved in d3-acetonitrile in NMR tubes. A known amount of ethyl acetate was added to each NMR tube as an internal standard. ^1H NMR spectra were acquired and through integration of the ethyl acetate standard, a concentration of THF or additive was calculated and scaled up to reflect the total volume of the aqueous or non-aqueous phase giving a percentage of the compound being forced out or retained. Then argon was bubbled through the solution while heating to 50° C. until the two phases recombined (15 to 60 min). The whole switching process (30 min CO2, sample take, then another 30 min of Ar) was repeated.
# [8] = Degree of protonation/deprotonation of amine additives in D2O by 1H NMR; conditions: 0.1 M in D2O; for degree of protonation by CO2: room temperature
# Experimental: In order to establish the chemical shifts of the protonated bases, molar equivalents of several strong acids, including HCl and HNO3, were added to separate solutions of the amines dissolved in D2O. ^1H NMR spectra were acquired on a Bruker AV-400 NMR spectrometer at 400.3 MHz for three replicate solutions of each amine. An average value of each chemical shift for each protonated base was calculated along with standard deviations. […] The ^1H NMR chemical shifts of the unprotonated amines were also measured.
# The amine was dissolved in D2O in an NMR tube and sealed with a rubber septa. The spectrum was then acquired. Subsequently, two narrow gauge steel needles were inserted and gas was gently bubbled through one of them into the solution at approximately 4-5 bubbles per second. The second needle served as a vent for the gaseous phase.
# Firstly CO2 was bubbled through the solution for the required length of time and then the spectrum was re-acquired. This process was repeated. The % protonation of the amine was determined from the observed chemical shifts by determining the amount of movement of the peaks from the normal position for the unprotonated amine towards the position expected for the fully protonated amine.
# Nitrogen gas was flushed through the solution at 75° C.
# In order to establish the chemical shifts of the protonated bases, molar equivalents of several strong acids, including HCl and HNO3, were added to separate solutions of the tetraamine dissolved in D2O. ^1H NMR spectra were acquired on a Bruker AV-400 NMR spectrometer at 400.3 MHz for three replicate solutions of the amine. An average value of each chemical shift for each protonated base was calculated along with standard deviations. […] The ^1H NMR chemical shifts of the unprotonated amine were also measured. […]
# [9] = Salting out THF from water using secondary amine additives, 1H NMR; assay type: physicochemical; conditions: 1.60 molal, 1:1 w/w THF:water, 30 minutes CO2
# Experimental: N-tert-Butylethanolamine and N-ter-butymethylamine were investigated as additives for switchable ionic strength solutions. […] The volumes of each phase were recorded. […] The recombining of the phases when N-tert-butymethylamine was used as an additive was not successful at 30 min but was achieved by 2 h at a higher Ar flow rate of 15 mL/min. THF was added afterwards to replace the amount of THF being evaporated during the procedure.
# [10] = Expulsion of THF from water and removal of additive from the aqueous phase; assay type: physicochemical; conditions: for additive removed from the aqueous phase after N2 treatment: separated aqueous phase, N2 90 minutes, 60° C.
# Experimental: 1.50 g H2O, 1.50 g THF, and 0.30 g N,N,N′N′-tetraethyl-1,4-diaminobutane (TEDAB) were mixed together in a graduated cylinder to generate a single phase solution. […] A small stir bar was added to the solution and the cylinder was capped with a rubber septa. The following procedure was run in triplicate with a new sample (of the same contents shown above) each time.
# A long, narrow gauge needle was inserted through the septa into the solution. […] CO2 was bubbled through the solution a flow rate of about 5 ml/min for 45 minutes with stirring until a 2nd phase creams out on top of the aqueous phase. The CO2 bubbling was stopped and the needles withdrawn. The cylinder was immersed in a hot water bath for several seconds to facilitate the separation of the liquid phases. Both phases were clear and yellow in colour.
# The organic phase was decanted off giving a mass of 1.253 g (density=0.84 g/m).
# A 39.1 mg sample of the organic phase was placed in an NMR tube with deuterated acetonitrile and 50.2 mg ethyl acetate to act as an internal standard. A 66.2 mg sample of the aqueous phase was placed in a 2nd NMR tube with deuterated acetonitrile with 22.3 mg ethyl acetate to act as an internal standard. A ^1H NMR spectra was acquired and knowing the corresponding amount of ethyl acetate in each sample the resulting amounts of THF in the aqueous sample and additive in the organic sample can be calculated. Knowing the mass, volume, and density of each layer, the total amount of THF or additive in a respective layer can be calculated.
# 1.943 g (1.90 ml) of the aqueous phase was returned to the same graduated cylinder. The needles and septa were put back into the cylinder and the cylinder was immersed in a 60° C., water bath. N2 was introduced in the same fashion as CO2 preformed previously and the N2 was bubbled through the solution for 90 minutes where a deep yellow organic phase creams out of the aqueous phase.
# A 37.9 mg sample of the aqueous phase was taken up in an NMR tube with deuterated acetonitrile and 41.5 mg ethyl acetate to act as an internal standard.
# [11] = 0.80 molal additive, 1:1 w/w THF:H2O, 30 min CO2, in aqueous phase
# [12] = 1:1 v/v additive:water, 25° C., glass frit
# [13] = 1:1 v/v, N2 at 80° C., glass frit
structure (smiles),measurement,setting,value
"CN(C)Cc1cc(CN(C)C)cc(CN(C)C)c1 [1,3,5-C6H3(CH2NMe2)3, N,N,N′,N′,N″,N″-1,3,5-benzenetrimethanamine]","Miscibility with water, After addition of CO2",[1],miscible
same,"Miscibility with water, Before addition of CO2",[1],miscible
"CN(C)CC1CC(CN(C)C)CC(CN(C)C)C1 (stereo not drawn) [1,3,5-cycloC6H9(CH2NMe2)3, 1,1′,1″-(cyclohexane-1,3,5-triyl)tris(N,N,-dimethylmethanamine)]","Miscibility with water, After addition of CO2",[1],miscible
same,"Miscibility with water, Before addition of CO2",[1],immiscible
"C/C(=N\CCCC/N=C(\C)N(C)C)N(C)C [DIAC, N,N-(butane-1,4-diyl)bis(N,N-dimethylacetimidamide)]",additive retained in the aqueous phase,[2],99.5%
CC(O)CN(CCCN(C)C)CCCN(C)C (stereo not drawn) [DMAPAP],% Additive Retained,[3]; [11],98.8 ± 0.4%
same,% Additive Retained,[3]; THF:H2O:Additive 3:3:1 w/w/w,87.1 ± 7.3%
same,% Additive Retained,[3]; THF:H2O:Additive 5:5:1 w/w/w,98.4 ± 0.4%
same,% Additive Retained,[3]; THF:H2O:Additive 10:10:1 w/w/w,96.0 ± 0.8%
same,% Additive Retained,[3]; THF:H2O:Additive 15:15:1 w/w/w,94.4 ± 1.1%
same,Zeta Potential,"[4]; Illite, 0.8 molal additive",−19.1 ± 3.92 mV
same,Zeta Potential,"[4]; Illite, 0.8 molal additive + 1 h CO2",−1.87 mV
same,Zeta Potential,"[4]; Montmorillonite, 0.8 molal additive",−16.8 ± 4.64 mV
same,Zeta Potential,"[4]; Montmorillonite, 0.8 molal additive + 1 h CO2",−2.99 mV
same,conductivity on CO2 bubbling,[5]; [12],lower conductivities than TMDAB
same,Zeta Potential,[6]; 0.8 molal additive,−24.3 ± 2.29 mV
same,Zeta Potential,[6]; 0.8 molal additive + 1 h CO2,−3.99 mV
"CN(C)CCN(C)CCN(C)CCN(C)C [HMTETA, 1,1,4,7,10,10-hexamethyl triethylenetetramine]",% Additive Retained,[3]; [11],99.3 ± 0.4%
same,% Additive Retained,[3]; THF:H2O:Additive 3:3:1 w/w/w,95.6 ± 1.5%
same,% Additive Retained,[3]; THF:H2O:Additive 5:5:1 w/w/w,98.4 ± 1.2%
same,% Additive Retained,[3]; THF:H2O:Additive 10:10:1 w/w/w,98.0 ± 1.0%
same,% Additive Retained,[3]; THF:H2O:Additive 15:15:1 w/w/w,98.2 ± 0.3%
same,conductivity on CO2 bubbling,[5]; [12],lower conductivities than TMDAB
same,conductivity of ionic form after 20 minutes of N2,[5]; [13],close to zero
"CN(C)CCCN(C)CCCCN(C)CCCN(C)C [MeSpe, N^1,N^1′-(butane-1,4-diyl)bis(N^1,N^2,N^3-trimethylpropane-1,3-diamine)]",Additive retained in THF,"[7]; 30 min CO2, run 1",99.85%
same,Additive retained in THF,"[7]; 30 min CO2, run 2",99.79%
same,degree of protonation by CO2,[8],93%
CC(C)(C)NCCO [N-tert-butylethanolamine],Additive retained in H2O,[9],99.84 ± 0.04%
CNC(C)(C)C [N-tert-butymethylamine],Additive retained in H2O,[9],99.75 ± 0.04%
"CCCN(CCC)CCCCN(CCC)CCC [Pr2NCH2CH2CH2CH2NPr2, N,N,N′,N′-tetrapropyl-1,4-diaminobutane]","Miscibility with water, After addition of CO2",[1],immiscible
same,"Miscibility with water, Before addition of CO2",[1],immiscible
"CCCN(CC)CCCCN(CC)CCC [PrEtNCH2CH2CH2CH2NPrEt, N,N′-diethyl-N,N′-dipropyl-1,4-diaminobutane]",additive removed from the aqueous phase after N2 treatment,[10],81%
same,"Miscibility with water, After addition of CO2",[1],miscible
same,"Miscibility with water, Before addition of CO2",[1],immiscible
"CCN(CC)CCCCN(CC)CC [TEDAB, N, N, N′, N′-tetraethyl-1,4-diaminobutane]",additive residing in the aqueous phase after CO2 treatment,"[10]; 1.50 g H2O, 1.50 g THF, 0.30 g additive, CO2 45 minutes",91.1±3.7%
same,additive removed from the aqueous phase after N2 treatment,[10],49.3±6.3%
same,"Miscibility with water, After addition of CO2",[1],miscible
same,"Miscibility with water, Before addition of CO2",[1],immiscible
"OCCN(CCO)CCN(CCO)CCO [THEED, N, N, N′, N′-tetrakis(2-hydroxyethyl) ethylenediamine]",degree of deprotonation,"[8]; N2 bubbling at 75° C., 2 hours (120 minutes)",98%
same,degree of protonation by CO2,[8]; by 10 minutes,49%
"CN(C)CCCCN(C)C [TMDAB, N, N, N′, N′-tetramethyl-1,4-diaminobutane]",% Additive Retained,[3]; [11],99.2 ± 0.4%
same,% Additive Retained,[3]; THF:H2O:Additive 3:3:1 w/w/w,87.1 ± 2.1%
same,% Additive Retained,[3]; THF:H2O:Additive 5:5:1 w/w/w,99.8% and 99.6 ± 0.1%
same,% Additive Retained,[3]; THF:H2O:Additive 10:10:1 w/w/w,99.4 ± 0.1%
same,% Additive Retained,[3]; THF:H2O:Additive 15:15:1 w/w/w,98.4 ± 0.4%
same,reduction of conductivity,"[5]; 1:1 v/v H2O:amine, 90 minutes, 80° C., N2 through a glass frit",approximately 95%
same,rate of conductivity increase on CO2 bubbling,[5]; [12],highest rate of conductivity increase
same,rate of conductivity decrease on N2 flushing,[5]; [13],highest
